Bounds are passed on as bounds.

This passage reports IC50 results from ChEMBL document CHEMBL4190358, “Bruton's Tyrosine Kinase Inhibitors for the Treatment of Autoimmune Diseases and Cancers” (ACS Med Chem Lett, 2017).

Tyrosine-protein kinase BTK, sequence (Q06187 whole entry): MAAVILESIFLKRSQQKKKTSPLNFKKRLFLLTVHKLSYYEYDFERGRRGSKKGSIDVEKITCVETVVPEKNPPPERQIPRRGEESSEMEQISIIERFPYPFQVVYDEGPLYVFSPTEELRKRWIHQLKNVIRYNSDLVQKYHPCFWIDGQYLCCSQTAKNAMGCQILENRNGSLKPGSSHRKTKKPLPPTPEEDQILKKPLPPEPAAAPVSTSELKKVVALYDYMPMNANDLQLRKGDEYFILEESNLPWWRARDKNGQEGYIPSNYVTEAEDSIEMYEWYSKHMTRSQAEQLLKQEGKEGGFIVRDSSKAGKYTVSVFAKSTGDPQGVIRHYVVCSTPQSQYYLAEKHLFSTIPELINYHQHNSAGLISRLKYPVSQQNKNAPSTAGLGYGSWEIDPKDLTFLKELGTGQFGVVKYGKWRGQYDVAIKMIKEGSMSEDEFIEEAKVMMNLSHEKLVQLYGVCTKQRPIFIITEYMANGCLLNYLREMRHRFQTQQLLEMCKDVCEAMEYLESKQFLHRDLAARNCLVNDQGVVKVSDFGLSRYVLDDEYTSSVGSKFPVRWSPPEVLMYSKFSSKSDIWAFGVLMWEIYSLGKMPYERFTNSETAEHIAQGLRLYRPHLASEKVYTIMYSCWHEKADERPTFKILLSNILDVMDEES

The assay addresses Tyrosine-protein kinase BTK (Homo sapiens, UniProt Q06187). In words: Inhibition of BTK (unknown origin) using peptide substrate after 1 hr by HTRF assay. (TR-FRET usually uses a lanthanide donor and a delayed reading to cut background.)
In the case of `C=CC(=O)N1CCC[C@@H](n2nc(-c3ccc(Oc4cccc(OC)c4F)cc3)c3cncc(OC)c32)C1`, the IC50 (as a rule, the concentration that inhibits the measured activity by half) lay within 100 to 1000 nM.

In turn, `C=CC(=O)N1CC[C@H](n2nc3ccncc3c2-c2ccc(Oc3cccc(Cl)c3Cl)cc2)C1` came in with a half-inhibitory concentration (IC50) not above 10 nM.

As to `C=CC(=O)N1CC[C@@H](n2nc(-c3ccc(Oc4cccc(OC)c4F)cc3)c3c2CCN(C(C)=O)C3)C1`, the IC50 was 1000 to 10000 nM.

`C=CC(=O)N1CCC[C@H](n2nc3ccncc3c2-c2ccc(Oc3cccc(Cl)c3Cl)cc2)C1` displayed a half-inhibitory concentration (IC50) not above 10 nM.

In the case of `C=CC(=O)N1CC[C@@H](n2nc(-c3ccc(Oc4cccc(OC)c4Cl)cc3)c3cnccc32)C1`, the concentration for half-maximal inhibition (IC50) was not above 10 nM.

Molecule `O=C(Nc1ccc(-c2nn(C3CCC(C(=O)O)CC3)c3ccncc23)cc1)c1ccccc1` (configuration not stated) showed a concentration for half-maximal inhibition (IC50) not below 10000 nM.

For `C=CC(=O)N1CCC[C@@H](n2nc(-c3ccc(Oc4ccccc4)cc3)c3cnccc32)C1`, the half-maximal inhibitory concentration (IC50) was not above 10 nM.

Regarding `C=CC(=O)N1CCC[C@@H](n2nc(-c3ccc(Oc4cccc(Cl)c4)cc3)c3cnccc32)C1`, the half-maximal inhibitory concentration (IC50) was 10 to 100 nM.

In the case of `C=CC(=O)N1CC[C@@H](n2nc(-c3ccc(Oc4cccc(OC)c4C)cc3)c3cnccc32)C1`, the IC50 lay in the range of 10 to 100 nM.

As for `C=CC(=O)N1CC[C@@H](n2nc(-c3ccc(Sc4cccc(F)c4)cc3)c3cnccc32)C1`, the 50% inhibitory concentration (IC50) was not above 10 nM.

`CC#CC(=O)N1CCC[C@@H](n2nc(-c3ccc(C(=O)Nc4ccccn4)cc3)c3cnccc32)C1` yielded an IC50 of 100 to 1000 nM.

`COc1cccc(Oc2ccc(-c3nn([C@@H]4CCCN(C(=O)OC(C)(C)C)C4)c4c(OC)cncc34)cc2)c1F` showed an IC50 not above 10 nM.
